Data as given in patent US8962631B2 (Vertex Pharmaceuticals Incorporated, priority 2010, dated 2015).

Biological target: T1, full-length ATR (Homo sapiens, UniProt Q13535)
T1 construct: Assays were carried out at 25° C. in the presence of 5 nM full-length ATR
Test: ATR Inhibition Assay (radioactive-phosphate incorporation)
Type: biochemical
Conditions: Ki(app); 10 μM ATP, 800 μM target peptide, 5 nM full-length ATR, 25° C.
Procedure: Compounds were screened for their ability to inhibit ATR kinase using a radioactive-phosphate incorporation assay. Assays were carried out in a mixture of 50 mM Tris/HCl (pH 7.5), 10 mM MgCl2 and 1 mM DTT. Final substrate concentrations were 10 μM [γ-33P]ATP (3 mCi 33P ATP/mmol ATP, Perkin Elmer) and 800 μM target peptide ([…] (SEQ. ID NO: 1)).
Assays were carried out at 25° C. in the presence of 5 nM full-length ATR. An assay stock buffer solution was prepared containing all of the reagents listed above, with the exception of ATP and the test compound of interest. 13.5 μL of the stock solution was placed in a 96 well plate followed by addition of 2 μL of DMSO stock containing serial dilutions of the test compound (typically starting from a final concentration of 15 μM with 3-fold serial dilutions) in duplicate (final DMSO concentration 7%). The plate was pre-incubated for 10 minutes at 25° C. and the reaction initiated by addition of 15 μL [γ-33P]ATP (final concentration 10 μM).
The reaction was stopped after 24 hours by the addition of 30 μL 0.1M phosphoric acid containing 2 mM ATP. A multiscreen phosphocellulose filter 96-well plate (Millipore, Cat no. MAPHN0B50) was pretreated with 100 μL 0.2M phosphoric acid prior to the addition of 45 μL of the stopped assay mixture. The plate was washed with […] 0.2M phosphoric acid. After drying, 100 μL Optiphase ‘SuperMix’ liquid scintillation cocktail (Perkin Elmer) was added to the well prior to scintillation counting (1450 Microbeta Liquid Scintillation Counter, Wallac).
After removing mean background values for all of the data points, Ki(app) data were calculated from non-linear regression analysis of the initial rate data using the Prism software package (GraphPad Prism version 3.0cx for Macintosh, GraphPad Software, San Diego Calif., USA).

T1 sequence (Q13535 whole entry): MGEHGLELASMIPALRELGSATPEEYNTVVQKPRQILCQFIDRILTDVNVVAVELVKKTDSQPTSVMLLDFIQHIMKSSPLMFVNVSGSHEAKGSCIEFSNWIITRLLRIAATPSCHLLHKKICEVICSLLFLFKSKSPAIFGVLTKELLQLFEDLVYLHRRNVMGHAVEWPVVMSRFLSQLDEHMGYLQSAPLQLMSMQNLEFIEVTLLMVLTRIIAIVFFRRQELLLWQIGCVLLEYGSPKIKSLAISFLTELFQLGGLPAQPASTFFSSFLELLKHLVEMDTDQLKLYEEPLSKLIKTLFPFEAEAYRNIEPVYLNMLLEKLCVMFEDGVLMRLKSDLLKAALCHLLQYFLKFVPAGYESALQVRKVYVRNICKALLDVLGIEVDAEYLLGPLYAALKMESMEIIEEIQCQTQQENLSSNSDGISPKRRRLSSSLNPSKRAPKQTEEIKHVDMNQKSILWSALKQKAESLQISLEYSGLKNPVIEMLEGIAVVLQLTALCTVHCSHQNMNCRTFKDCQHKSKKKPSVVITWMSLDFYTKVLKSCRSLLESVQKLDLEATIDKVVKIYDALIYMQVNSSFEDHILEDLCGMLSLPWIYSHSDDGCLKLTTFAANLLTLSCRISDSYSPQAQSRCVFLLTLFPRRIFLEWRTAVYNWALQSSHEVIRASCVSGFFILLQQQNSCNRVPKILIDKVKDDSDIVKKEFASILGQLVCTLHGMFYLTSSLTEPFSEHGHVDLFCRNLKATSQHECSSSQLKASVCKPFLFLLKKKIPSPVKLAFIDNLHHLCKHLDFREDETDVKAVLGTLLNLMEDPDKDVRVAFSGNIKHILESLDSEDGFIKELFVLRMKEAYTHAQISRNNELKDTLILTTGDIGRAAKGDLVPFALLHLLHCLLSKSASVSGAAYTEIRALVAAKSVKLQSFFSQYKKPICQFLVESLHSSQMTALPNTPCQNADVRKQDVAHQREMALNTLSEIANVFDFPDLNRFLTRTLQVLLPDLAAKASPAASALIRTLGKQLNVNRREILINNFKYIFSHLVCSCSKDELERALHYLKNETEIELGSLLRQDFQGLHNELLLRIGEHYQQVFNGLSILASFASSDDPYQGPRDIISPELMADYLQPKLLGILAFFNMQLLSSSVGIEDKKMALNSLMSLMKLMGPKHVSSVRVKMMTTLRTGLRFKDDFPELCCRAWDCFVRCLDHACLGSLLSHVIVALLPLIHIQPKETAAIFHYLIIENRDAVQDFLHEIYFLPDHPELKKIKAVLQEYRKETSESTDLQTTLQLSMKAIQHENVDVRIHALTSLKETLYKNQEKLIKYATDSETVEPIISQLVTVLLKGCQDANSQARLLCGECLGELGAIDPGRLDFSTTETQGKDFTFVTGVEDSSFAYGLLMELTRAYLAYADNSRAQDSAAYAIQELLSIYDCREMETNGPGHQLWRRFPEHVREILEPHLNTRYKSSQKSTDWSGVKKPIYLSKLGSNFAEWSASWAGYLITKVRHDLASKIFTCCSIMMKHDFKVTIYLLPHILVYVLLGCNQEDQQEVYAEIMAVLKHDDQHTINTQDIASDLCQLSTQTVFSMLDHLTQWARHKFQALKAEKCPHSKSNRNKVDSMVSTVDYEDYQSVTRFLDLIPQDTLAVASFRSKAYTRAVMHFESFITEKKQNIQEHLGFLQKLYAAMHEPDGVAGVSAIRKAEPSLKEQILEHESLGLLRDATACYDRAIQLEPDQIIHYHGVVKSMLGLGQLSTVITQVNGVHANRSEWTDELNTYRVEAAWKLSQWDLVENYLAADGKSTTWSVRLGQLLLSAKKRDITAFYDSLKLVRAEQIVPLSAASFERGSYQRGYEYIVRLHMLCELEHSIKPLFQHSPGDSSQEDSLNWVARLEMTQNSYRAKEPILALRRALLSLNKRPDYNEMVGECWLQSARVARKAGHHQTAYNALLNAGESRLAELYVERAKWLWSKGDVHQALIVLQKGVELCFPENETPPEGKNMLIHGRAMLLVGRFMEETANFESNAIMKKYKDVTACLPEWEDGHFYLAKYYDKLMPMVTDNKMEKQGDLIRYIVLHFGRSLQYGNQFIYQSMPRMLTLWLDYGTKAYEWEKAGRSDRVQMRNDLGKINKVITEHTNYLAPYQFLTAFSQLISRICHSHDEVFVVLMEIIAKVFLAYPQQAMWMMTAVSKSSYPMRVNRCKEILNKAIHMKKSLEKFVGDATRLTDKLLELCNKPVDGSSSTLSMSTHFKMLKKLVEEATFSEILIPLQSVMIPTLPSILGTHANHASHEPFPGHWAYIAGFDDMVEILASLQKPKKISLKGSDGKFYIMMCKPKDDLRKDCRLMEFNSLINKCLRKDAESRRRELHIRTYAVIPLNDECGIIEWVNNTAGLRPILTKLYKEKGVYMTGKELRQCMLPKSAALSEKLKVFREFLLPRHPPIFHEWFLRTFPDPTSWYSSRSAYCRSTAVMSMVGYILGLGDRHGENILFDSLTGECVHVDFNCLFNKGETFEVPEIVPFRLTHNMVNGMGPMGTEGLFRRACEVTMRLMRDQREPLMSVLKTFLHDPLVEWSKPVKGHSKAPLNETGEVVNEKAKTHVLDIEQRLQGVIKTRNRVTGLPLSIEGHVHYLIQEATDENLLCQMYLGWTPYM

Question: `Cc1ccc2nc(-c3nc(C(=O)NCC(C)O)cnc3N)[nH]c2c1` (centres unmarked) [II-67, 5-Amino-N-(2-hydroxypropyl)-6-(6-methyl-1H-benzimidazol-2-yl)pyrazine-2-carboxamide] was tested. Which Ki did it give?
Answer: 1000 to 8000 nM

Question: With `CC(=O)Nc1cccc(Oc2cnc(N)c(-c3nc4ccccc4[nH]3)n2)c1` [II-9, N-[3-[5-Amino-6-(1H-benzimidazol-2-yl)pyrazin-2-yl]oxyphenyl]acetamide] as the compound, how does the Ki read?
Answer: 1000 to 8000 nM

Question: How did the Ki turn out when `N#CCNC(=O)c1cnc(N)c(-c2nc3ccccc3[nH]2)n1` [II-75, 5-Amino-6-(1H-benzimidazol-2-yl)-N-(cyanomethyl)pyrazine-2-carboxamide] was run?
Answer: ≤ 500 nM

Question: With `Cc1ccc2nc(-c3nc(C(=O)NCc4ccco4)cnc3N)[nH]c2c1` [II-68, 5-Amino-N-(2-furylmethyl)-6-(6-methyl-1H-benzimidazol-2-yl)pyrazine-2-carboxamide] as the compound, how does the Ki read?
Answer: 500 to 1000 nM

Question: How did the Ki turn out when `Cc1ccc2nc(-c3nc(C(=O)NCC4CCCO4)cnc3N)[nH]c2c1` (centres unmarked) [II-52, 5-Amino-6-(6-methyl-1H-benzimidazol-2-yl)-N-(tetrahydrofuran-2-ylmethyl)pyrazine-2-carboxamide] was run?
Answer: ≤ 500 nM

Question: How did the Ki turn out when `Nc1ncc(Oc2cccc(Cl)c2)nc1-c1nc2ccccc2[nH]1` [II-8, 3-(1H-Benzimidazol-2-yl)-5-(3-chlorophenoxy)pyrazin-2-amine] was run?
Answer: 500 to 1000 nM

Question: With `Cc1ccc2nc(-c3nc(C(=O)NCCC(F)(F)F)cnc3N)[nH]c2c1` [II-73, 5-Amino-6-(6-methyl-1H-benzimidazol-2-yl)-N-(3,3,3-trifluoropropyl)pyrazine-2-carboxamide] as the compound, how does the Ki read?
Answer: 500 to 1000 nM

Question: How did the Ki turn out when `CC(=O)NCC#Cc1cnc(N)c(-c2nc3ccc(C)cc3[nH]2)n1` [II-88, N-[3-[5-amino-6-(6-methyl-1H-benzimidazol-2-yl)pyrazin-2-yl]prop-2-ynyl]acetamide] was run?
Answer: ≤ 500 nM

Question: Which Ki does the source give for `Nc1ncc(Oc2ccccc2)nc1C(=O)Nc1ccccc1` [II-17, 3-Amino-6-phenoxy-N-phenyl-pyrazine-2-carboxamide] here?
Answer: 500 to 1000 nM

Question: With `Nc1ncc(Sc2cccc(Cl)c2)nc1-c1nc2ccccc2[nH]1` [II-39, 3-(1H-Benzimidazol-2-yl)-5-(3-chlorophenyl)sulfanyl-pyrazin-2-amine] as the compound, how does the Ki read?
Answer: 1000 to 8000 nM

Question: With `Cc1ccc2nc(-c3nc(C(=O)NCCN4CCCC4)cnc3N)[nH]c2c1` [II-51, 5-Amino-6-(6-methyl-1H-benzimidazol-2-yl)-N-(2-pyrrolidin-1-ylethyl)pyrazine-2-carboxamide] as the compound, how does the Ki read?
Answer: 500 to 1000 nM

Question: For `COC(=O)c1cnc(N)c(-c2nc3ccc(C)cc3[nH]2)n1` [II-47, Methyl 5-amino-6-(6-methyl-1H-benzo[d]imidazol-2-yl)pyrazine-2-carboxylate], which Ki is on record?
Answer: ≤ 500 nM

Question: `C#CCNC(=O)c1cnc(N)c(-c2nc3ccc(C)cc3[nH]2)n1` [II-54, 5-Amino-6-(6-methyl-1H-benzimidazol-2-yl)-N-prop-2-ynyl-pyrazine-2-carboxamide] was tested. Which Ki did it give?
Answer: ≤ 500 nM

Question: Which Ki does the source give for `Nc1ncc(Oc2cccnc2)nc1-c1nc2ccccc2[nH]1` [II-12, 3-(1H-Benzimidazol-2-yl)-5-(3-pyridyloxy)pyrazin-2-amine] here?
Answer: 1000 to 8000 nM

Question: Which Ki does the source give for `Cc1ccc2nc(-c3nc(C(=O)NCCc4ccccc4)cnc3N)[nH]c2c1` [II-69, 5-Amino-6-(6-methyl-1H-benzimidazol-2-yl)-N-phenethyl-pyrazine-2-carboxamide] here?
Answer: 500 to 1000 nM

Question: For `Cc1ccc2nc(-c3nc(C(=O)Nc4ccc(N5CCN(C)CC5)nc4)cnc3N)[nH]c2c1` [II-45, 5-Amino-6-(6-methyl-1H-benzimidazol-2-yl)-N-[6-(4-methylpiperazin-1-yl)-3-pyridyl]pyrazine-2-carboxamide], which Ki is on record?
Answer: 1000 to 8000 nM

Question: `Cc1ccc2nc(-c3nc(C(=O)NCC#N)cnc3N)[nH]c2c1` [II-48, 5-Amino-N-(cyanomethyl)-6-(6-methyl-1H-benzimidazol-2-yl)pyrazine-2-carboxamide] was tested. Which Ki did it give?
Answer: ≤ 500 nM

Question: For `Cc1ccc2nc(-c3nc(Oc4c(F)cccc4F)cnc3N)[nH]c2c1` [II-22, 5-(2,6-Difluorophenoxy)-3-(6-methyl-1H-benzimidazol-2-yl)pyrazin-2-amine], which Ki is on record?
Answer: 1000 to 8000 nM

Question: How did the Ki turn out when `Cc1ccc2nc(-c3nc(Oc4ccccc4)cnc3N)[nH]c2c1` [II-30, 3-(6-Methyl-1H-benzimidazol-2-yl)-5-phenoxy-pyrazin-2-amine] was run?
Answer: 1000 to 8000 nM

Question: `Cc1ccc2nc(-c3nc(Oc4ccc(F)cc4)cnc3N)[nH]c2c1` [II-23, 5-(4-Fluorophenoxy)-3-(6-methyl-1H-benzimidazol-2-yl)pyrazin-2-amine] was tested. Which Ki did it give?
Answer: 1000 to 8000 nM

Question: For `CC(C)(O)C#Cc1cnc(N)c(C(=O)Nc2ccccc2)n1` [II-81, 3-Amino-6-(3-hydroxy-3-methyl-but-1-ynyl)-N-phenyl-pyrazine-2-carboxamide], which Ki is on record?
Answer: 500 to 1000 nM

Question: For `COCCNC(=O)c1cnc(N)c(-c2nc3ccc(C)cc3[nH]2)n1` [II-71, 5-Amino-N-(2-methoxyethyl)-6-(6-methyl-1H-benzimidazol-2-yl)pyrazine-2-carboxamide], which Ki is on record?
Answer: 1000 to 8000 nM

Question: Which Ki does the source give for `Cc1ccc2nc(-c3nc(C(=O)N[C@@H](C)c4ccccc4)cnc3N)[nH]c2c1` [II-59, 5-Amino-6-(6-methyl-1H-benzimidazol-2-yl)-N-[(1S)-1-phenylethyl]pyrazine-2-carboxamide] here?
Answer: 500 to 1000 nM

Question: How did the Ki turn out when `Cc1ccc2nc(-c3nc(C(=O)N(C)c4ccccc4)cnc3N)[nH]c2c1` [II-44, 5-Amino-N-methyl-6-(6-methyl-1H-benzimidazol-2-yl)-N-phenyl-pyrazine-2-carboxamide] was run?
Answer: 500 to 1000 nM

Question: For `Cc1ccc2nc(-c3nc(C(=O)NCc4ccc(F)cc4)cnc3N)[nH]c2c1` [II-64, 5-Amino-N-[(4-fluorophenyl)methyl]-6-(6-methyl-1H-benzimidazol-2-yl)pyrazine-2-carboxamide], which Ki is on record?
Answer: ≤ 500 nM

Question: `Cc1ccc2nc(-c3nc(C(=O)NCC(N)=O)cnc3N)[nH]c2c1` [II-50, 5-Amino-N-(2-amino-2-oxo-ethyl)-6-(6-methyl-1H-benzimidazol-2-yl)pyrazine-2-carboxamide] was tested. Which Ki did it give?
Answer: 1000 to 8000 nM

Question: How did the Ki turn out when `Cc1ccc2nc(-c3nc(C(=O)N4CCOCC4)cnc3N)[nH]c2c1` [II-53, [5-Amino-6-(6-methyl-1H-benzimidazol-2-yl)pyrazin-2-yl]-morpholino-methanone] was run?
Answer: 1000 to 8000 nM

Question: How did the Ki turn out when `Nc1ncc(Nc2ccccc2)nc1C(=O)Nc1ccccc1` [II-1, 3-Amino-6-anilino-N-phenyl-pyrazine-2-carboxamide] was run?
Answer: ≤ 500 nM

Question: With `Cc1ccc2nc(-c3nc(C(=O)NCc4cccnc4)cnc3N)[nH]c2c1` [II-70, 5-Amino-6-(6-methyl-1H-benzimidazol-2-yl)-N-(3-pyridylmethyl)pyrazine-2-carboxamide] as the compound, how does the Ki read?
Answer: 500 to 1000 nM

Question: For `Nc1ncc(C#CCO)nc1-c1nnc(-c2ccccc2)o1` [II-90, 3-[5-amino-6-(5-phenyl-1,3,4-oxadiazol-2-yl)pyrazin-2-yl]prop-2-yn-1-ol], which Ki is on record?
Answer: 1000 to 8000 nM

Question: How did the Ki turn out when `Cc1ccc2nc(-c3nc(NC(=O)CC#N)cnc3N)[nH]c2c1` [II-92, N-(5-Amino-6-(6-methyl-1H-benzo[d]imidazol-2-yl)pyrazin-2-yl)-2-cyanoethanamide] was run?
Answer: 500 to 1000 nM

Question: Which Ki does the source give for `Nc1ncc(O[C@@H]2CC[C@H](O)C2)nc1-c1nc2ccccc2[nH]1` (relative stereo) [II-35, cis-3-((5-Amino-6-(1H-benzo[d]imidazol-2-yl)pyrazin-2-yl)oxy)cyclopentanol] here?
Answer: 1000 to 8000 nM

Question: `Cc1ccc2nc(-c3nc(Oc4cccnc4)cnc3N)[nH]c2c1` [II-29, 3-(6-Methyl-1H-benzimidazol-2-yl)-5-(3-pyridyloxy)pyrazin-2-amine] was tested. Which Ki did it give?
Answer: 500 to 1000 nM

Question: `Cc1ccc2nc(-c3nc(OC4CCCN(C)C4)cnc3N)[nH]c2c1` (centres unmarked) [II-33, 3-(6-Methyl-1H-benzimidazol-2-yl)-5-[(1-methyl-3-piperidyl)oxy]pyrazin-2-amine] was tested. Which Ki did it give?
Answer: 1000 to 8000 nM

Question: `Nc1ncc(Nc2ccncc2)nc1C(=O)Nc1ccccc1` [II-6, 3-Amino-N-phenyl-6-(4-pyridylamino)pyrazine-2-carboxamide] was tested. Which Ki did it give?
Answer: ≤ 500 nM

Question: `Cc1ccc2nc(-c3nc(C(=O)NC(C)c4ccccc4)cnc3N)[nH]c2c1` (stereo in doubt) [II-57, 5-Amino-6-(6-methyl-1H-benzimidazol-2-yl)-N-[(1R)1-phenylethyl]pyrazine-2-carboxamide] was tested. Which Ki did it give?
Answer: 1000 to 8000 nM

Question: Which Ki does the source give for `COC(=O)CNC(=O)c1cnc(N)c(-c2nc3ccc(C)cc3[nH]2)n1` [II-55, Methyl 2-[[5-amino-6-(6-methyl-1H-benzimidazol-2-yl)pyrazine-2-carbonyl]amino]acetate] here?
Answer: ≤ 500 nM

Question: `Cc1ccc2nc(-c3nc(C(=O)NCC4CC4)cnc3N)[nH]c2c1` [II-56, 5-Amino-N-(cyclopropylmethyl)-6-(6-methyl-1H-benzimidazol-2-yl)pyrazine-2-carboxamide] was tested. Which Ki did it give?
Answer: ≤ 500 nM

Question: `Cc1ccc2nc(-c3nc(/C=C/Cc4ccccc4)cnc3N)[nH]c2c1` was tested. Which Ki did it give?
Answer: 1000 to 8000 nM

Same assay, conditions: at 15 uM compound; read-out: percent inhibition against ATR

Question: How did the inhibition at 15 µM turn out when `Cc1ccc2nc(-c3nc(C(=O)Nc4ccccc4)cnc3N)[nH]c2c1` [II-41, 5-Amino-6-(6-methyl-1H-benzimidazol-2-yl)-N-phenyl-pyrazine-2-carboxamide] was run?
Answer: 25 to 45%

Question: For `Nc1ncc(Sc2ccccc2)nc1-c1nc2ccccc2[nH]1` [II-38, 3-(1H-Benzimidazol-2-yl)-5-phenylsulfanyl-pyrazin-2-amine], which inhibition at 15 µM is on record?
Answer: 15 to 24%
